biological target: FGFR2 (Homo sapiens (Human), UniProt P21802); experiment: FGFR2 Biochemical Caliper Assay
Experimental: Compounds of the present invention were also tested in a FGFR2 Biochemical Caliper Assay. Compounds were prepared in 10 mM DMSO solution and serially diluted into 11 concentrations by 3-fold dilution. […] 5 uL of ATP solution (100 uM) was added to start the reaction and the plate was incubated for 90 minutes, then 70 uL of stopping buffer (0.5M EDTA) was added to terminate the reaction. Each well was analyzed using EZ reader.

FGFR2, sequence (P21802 22-821): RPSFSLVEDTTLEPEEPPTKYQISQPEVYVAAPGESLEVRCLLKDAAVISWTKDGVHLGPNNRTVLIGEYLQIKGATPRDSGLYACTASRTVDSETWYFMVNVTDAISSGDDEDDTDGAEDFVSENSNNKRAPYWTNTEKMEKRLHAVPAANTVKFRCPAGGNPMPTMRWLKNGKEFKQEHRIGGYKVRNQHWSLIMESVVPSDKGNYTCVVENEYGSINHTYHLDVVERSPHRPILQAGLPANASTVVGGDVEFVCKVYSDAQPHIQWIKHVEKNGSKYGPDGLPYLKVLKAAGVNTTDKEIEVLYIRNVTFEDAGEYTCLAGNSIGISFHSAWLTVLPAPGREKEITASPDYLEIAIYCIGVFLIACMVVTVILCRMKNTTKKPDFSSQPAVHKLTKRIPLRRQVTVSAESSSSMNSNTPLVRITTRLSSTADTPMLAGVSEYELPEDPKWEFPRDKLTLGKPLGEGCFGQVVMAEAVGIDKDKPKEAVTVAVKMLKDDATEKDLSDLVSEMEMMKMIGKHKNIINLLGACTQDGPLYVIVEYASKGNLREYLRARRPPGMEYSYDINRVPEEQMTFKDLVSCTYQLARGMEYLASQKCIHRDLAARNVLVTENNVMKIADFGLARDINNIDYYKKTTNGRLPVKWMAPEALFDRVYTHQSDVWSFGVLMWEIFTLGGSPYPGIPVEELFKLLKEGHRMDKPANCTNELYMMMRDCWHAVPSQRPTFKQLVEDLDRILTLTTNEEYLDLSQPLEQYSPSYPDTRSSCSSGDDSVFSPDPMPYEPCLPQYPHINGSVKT

Compared with C=C(C)C(=O)Nc1ccc(-c2c(-c3ccc4c(c3)CC(NC(C)=O)C4)c3c(N)ncnc3n2C)cc1 (centres unmarked) [Example 204], C=C(C)C(=O)Nc1ccc(-c2c(-c3ccc4c(c3)CCN4C(=O)NC)c3c(N)ncnc3n2C)cc1 [Example 232] is lower in IC50: 1 to 100 µM for the first, 0.25 to 1 µM for the second. The second is the more potent here.

C=C(C)C(=O)Nc1ccc(-c2c(-c3ccc4[nH]c(C(=O)N(C)C)cc4c3)c3c(N)ncnc3n2C)cc1 [Example 205] and C=C(C)C(=O)Nc1ccc(-c2c(-c3ccc4c(c3)CNC4=O)c3c(N)ncnc3n2C)cc1 [Example 250] fall in the same range of IC50: 1 to 100 µM for the first, 1 to 100 µM for the second.

C=C(C)C(=O)Nc1ccc(-c2c(-c3ccc(N4CCCC4=O)nc3)c3c(N)ncnc3n2C)cc1 [Example 208] and C=C(C)C(=O)Nc1ccc(-c2c(-c3ccc(=O)n(C4CC4)c3)c3c(N)ncnc3n2C)cc1 [Example 275] fall in the same range of IC50: 1 to 100 µM for the first, 1 to 100 µM for the second.

C=C(C)C(=O)Nc1ccc(-c2c(-c3ccc4c(c3)CN(C)C4=O)c3c(N)ncnc3n2C)cc1 [Example 209] and C=C(C)C(=O)Nc1ccc(-c2c(-c3ccc4c(c3)C(C)N(C)C4=O)c3c(N)ncnc3n2C)cc1 (centres unmarked) [Example 287] fall in the same range of IC50: 1 to 100 µM for the first, 1 to 100 µM for the second.

First: C=C(C)C(=O)Nc1ccc(-c2c(-c3cnc4c(c3)OCCN4C)c3c(N)ncnc3n2C)cc1 [Example 214]
Second: C=C(C)C(=O)Nc1ccc(-c2c(-c3ccc(C4=NNC(C)O4)nc3)c3c(N)ncnc3n2C)cc1 (centres unmarked) [Example 285]
The IC50 of the first is lower: 0.1 to 0.25 µM for the first, 1 to 100 µM for the second.

First: C=C(C)C(=O)Nc1ccc(-c2c(-c3ccc(Cc4nn[nH]n4)cc3)c3c(N)ncnc3n2C)cc1 [Example 218]
Second: C=C(C)C(=O)Nc1ccc(-c2c(-c3ccc(-c4nnc(NC)s4)cc3)c3c(N)ncnc3n2C)cc1 [Example 280]
The IC50 of the first is higher: 1 to 100 µM for the first, 0.1 to 0.25 µM for the second. The second is the more potent here.

First: C=C(C)C(=O)Nc1ccc(-c2c(-c3cnn(CC4CCNCC4)c3)c3c(N)ncnc3n2C)cc1 [Example 221]
Second: C=C(C)C(=O)Nc1ccc(-c2c(-c3ccc(C(=O)NC4CCNC4)cc3)c3c(N)ncnc3n2C)cc1 (centres unmarked) [Example 358]
The IC50 of the first is higher: 1 to 100 µM for the first, < 0.1 µM for the second. The second is the more potent here.

First: C=C(C)C(=O)Nc1ccc(-c2c(-c3ccc(N(C)C(=O)C4CCCC4)cc3)c3c(N)ncnc3n2C)cc1 [Example 222]
Second: C=C(C)C(=O)Nc1ccc(-c2c(-c3ccc(NC(=O)C4CCC4)cc3)c3c(N)ncnc3n2C)cc1 [Example 226]
The IC50 of the first is higher: 1 to 100 µM for the first, < 0.1 µM for the second.

C=C(C)C(=O)Nc1ccc(-c2c(-c3ccc(Sc4ccccc4)nc3)c3c(N)ncnc3n2C)cc1 [Example 225] and C=C(C)C(=O)Nc1ccc(-c2c(-c3ccc(-c4cocn4)cc3)c3c(N)ncnc3n2C)cc1 [Example 278] fall in the same range of IC50: 0.25 to 1 µM for the first, 0.25 to 1 µM for the second.

C=C(C)C(=O)Nc1ccc(-c2c(-c3ccc(C(=O)N4CC5(CCC5)C4)cc3)c3c(N)ncnc3n2C)cc1 [Example 231] and C=C(C)C(=O)Nc1ccc(-c2c(-c3ccc(C(=O)N4CC5(CCO5)C4)cc3)c3c(N)ncnc3n2C)cc1 [Example 243] fall in the same range of IC50: 1 to 100 µM for the first, 1 to 100 µM for the second.

First: C=C(C)C(=O)Nc1ccc(-c2c(-c3ccc(C(=O)N4CC[C@H](OC)C4)cc3)c3c(N)ncnc3n2C)cc1 [Example 240]
Second: C=C(C)C(=O)Nc1ccc(-c2c(-c3ccc(C(=O)N4CC[C@@H](OC)C4)cc3)c3c(N)ncnc3n2C)cc1 [Example 252]
The IC50 of the first is higher: 1 to 100 µM for the first, 0.25 to 1 µM for the second.

First: C=C(C)C(=O)Nc1ccc(-c2c(-c3ccc(C(=O)N4CCC(OC)CC4)cc3)c3c(N)ncnc3n2C)cc1 [Example 242]
Second: C=C(C)C(=O)Nc1ccc(-c2c(-c3ccc(C(=O)N4CCC(F)CC4)cc3)c3c(N)ncnc3n2C)cc1 [Example 251]
The IC50 of the first is higher: 1 to 100 µM for the first, 0.25 to 1 µM for the second. The second is the more potent here.

Compared with C=C(C)C(=O)Nc1ccc(-c2c(-c3ccc(C(=O)N(C)C4CCOC4)cc3)c3c(N)ncnc3n2C)cc1 (centres unmarked) [Example 247], C=C(C)C(=O)Nc1ccc(-c2c(-c3ccc(C(=O)N(C)C4CC(F)(F)C4)cc3)c3c(N)ncnc3n2C)cc1 [Example 273] is lower in IC50: 1 to 100 µM for the first, 0.25 to 1 µM for the second. The second is the more potent here.

First: C=C(C)C(=O)Nc1ccc(-c2c(-c3ccc(OCC4CCCC4)cc3)c3c(N)ncnc3n2C)cc1 [Example 253]
Second: C=C(C)C(=O)Nc1ccc(-c2c(-c3ccc(S(=O)(=O)NC4CCCC4)cc3)c3c(N)ncnc3n2C)cc1 [Example 325]
The IC50 of the first is lower: 0.25 to 1 µM for the first, 1 to 100 µM for the second.

First: C=C(C)C(=O)Nc1ccc(-c2c(-c3ccc(C(=O)N(C)CCO)cc3)c3c(N)ncnc3n2C)cc1 [Example 254]
Second: C=C(C)C(=O)Nc1ccc(-c2c(-c3ccc(C(=O)N(C)CCOC)cc3)c3c(N)ncnc3n2C)cc1 [Example 284]
The IC50 of the first is lower: 0.25 to 1 µM for the first, 1 to 100 µM for the second.

First: C=C(C)C(=O)Nc1ccc(-c2c(-c3ccc(C(=O)N(C)c4ncccn4)cc3)c3c(N)ncnc3n2C)cc1 [Example 256]
Second: C=C(C)C(=O)Nc1ccc(-c2c(-c3ccc(C(=O)NCCO)cc3)c3c(N)ncnc3n2C)cc1 [Example 322]
The IC50 of the first is higher: 1 to 100 µM for the first, 0.25 to 1 µM for the second.

C=C(C)C(=O)Nc1ccc(-c2c(-c3ccc(C(=O)N4CC(F)(F)C4)cc3)c3c(N)ncnc3n2C)cc1 [Example 259] and C=C(C)C(=O)Nc1ccc(-c2c(-c3ccc(C(=O)N4CCC5(COC5)C4)cc3)c3c(N)ncnc3n2C)cc1 [Example 271] fall in the same range of IC50: 1 to 100 µM for the first, 1 to 100 µM for the second.

First: C=C(C)C(=O)Nc1ccc(-c2c(-c3ccc(C(=O)N4CC(C5CCOC5)C4)cc3)c3c(N)ncnc3n2C)cc1 (centres unmarked) [Example 261]
Second: C=C(C)C(=O)Nc1ccc(-c2c(-c3ccc(C(=O)N4CCC[C@@H]4C#N)cc3)c3c(N)ncnc3n2C)cc1 [Example 356]
The IC50 of the first is higher: 1 to 100 µM for the first, 0.1 to 0.25 µM for the second.

First: C=C(C)C(=O)Nc1ccc(-c2c(C3=CCN(C(=O)NC)CC3)c3c(N)ncnc3n2C)cc1 [Example 268]
Second: C=C(C)C(=O)Nc1ccc(-c2c(C3=CCC(C(=O)NCC(C)(C)OC)CC3)c3c(N)ncnc3n2C)cc1 (centres unmarked) [Example 394]
The IC50 of the first is higher: 1 to 100 µM for the first, 0.25 to 1 µM for the second. The second is the more potent here.

First: C=C(C)C(=O)Nc1ccc(-c2c(-c3ccc(C(=O)N(C)CC4CCCO4)cc3)c3c(N)ncnc3n2C)cc1 (centres unmarked) [Example 269]
Second: C=C(C)C(=O)Nc1ccc(-c2c(-c3ccc(C(=O)NCC4(O)CCC4)cc3)c3c(N)ncnc3n2C)cc1 [Example 347]
The IC50 of the first is higher: 1 to 100 µM for the first, < 0.1 µM for the second. The second is the more potent here.

First: C=C(C)C(=O)Nc1ccc(-c2c(-c3ccc(-c4cc(C)no4)cc3)c3c(N)ncnc3n2C)cc1 [Example 277]
Second: C=C(C)C(=O)Nc1ccc(-c2c(-c3ccc(-c4nc(C)c(C)o4)cc3)c3c(N)ncnc3n2C)cc1 [Example 279]
The IC50 of the first is higher: 0.25 to 1 µM for the first, 0.1 to 0.25 µM for the second. The second is the more potent here.

C=C(C)C(=O)Nc1ccc(-c2c(-c3ccc4c(ccn4S(C)(=O)=O)c3)c3c(N)ncnc3n2C)cc1 [Example 281] and C=C(C)C(=O)Nc1ccc(-c2c(-c3ccc(S(=O)(=O)NCC(F)(F)F)cc3)c3c(N)ncnc3n2C)cc1 [Example 326] fall in the same range of IC50: 1 to 100 µM for the first, 1 to 100 µM for the second.

Compared with C=C(C)C(=O)Nc1ccc(-c2c(-c3ccc(-c4nnc(C(F)(F)F)o4)cc3)c3c(N)ncnc3n2C)cc1 [Example 286], C=C(C)C(=O)Nc1ccc(-c2c(-c3ccc(C(=O)NCCF)cc3)c3c(N)ncnc3n2C)cc1 [Example 363] is lower in IC50: 1 to 100 µM for the first, < 0.1 µM for the second. The second is the more potent here.

First: C=C(C)C(=O)Nc1ccc(-c2c(-c3ccc(S(=N)(=O)N4CCCC4)cc3)c3c(N)ncnc3n2C)cc1 (centres unmarked) [Example 317]
Second: C=C(C)C(=O)Nc1ccc(-c2c(-c3ccc(S(=N)(=O)NC4CCCC4)cc3)c3c(N)ncnc3n2C)cc1 (centres unmarked) [Example 350]
The IC50 of the first is lower: 0.25 to 1 µM for the first, 1 to 100 µM for the second. The first is the more potent here.

First: C=C(C)C(=O)Nc1ccc(-c2c(-c3ccc(C(=O)NC(C)CO)cc3)c3c(N)ncnc3n2C)cc1 (centres unmarked) [Example 319]
Second: C=C(C)C(=O)Nc1ccc(-c2c(-c3ccc(C(=O)NCCCO)cc3)c3c(N)ncnc3n2C)cc1 [Example 336]
The IC50 of the first is lower: < 0.1 µM for the first, 0.1 to 0.25 µM for the second. The first is the more potent here.

Compared with C=C(C)C(=O)Nc1ccc(-c2c(-c3ccc(C(=O)NCC4CC(O)C4)cc3)c3c(N)ncnc3n2C)cc1 (centres unmarked) [Example 323], C=C(C)C(=O)Nc1ccc(-c2c(-c3ccc(C(=O)NC4CC(O)C4)cc3)c3c(N)ncnc3n2C)cc1 (centres unmarked) [Example 328] is higher in IC50: 0.1 to 0.25 µM for the first, 0.25 to 1 µM for the second.

First: C=C(C)C(=O)Nc1ccc(-c2c(-c3ccc(C(=O)NC4CC(CO)C4)cc3)c3c(N)ncnc3n2C)cc1 (centres unmarked) [Example 330]
Second: C=C(C)C(=O)Nc1ccc(-c2c(-c3ccc(C(=O)NC4CC(F)C4)cc3)c3c(N)ncnc3n2C)cc1 (centres unmarked) [Example 364]
The IC50 of the first is higher: 0.1 to 0.25 µM for the first, < 0.1 µM for the second.

First: C=C(C)C(=O)Nc1ccc(-c2c(-c3ccc(C(=O)NCCCOC)cc3)c3c(N)ncnc3n2C)cc1 [Example 333]
Second: C=C(C)C(=O)Nc1ccc(-c2c(-c3ccc(C(=O)NCCC4COC4)cc3)c3c(N)ncnc3n2C)cc1 [Example 367]
The IC50 of the first is lower: 0.1 to 0.25 µM for the first, 0.25 to 1 µM for the second. The first is the more potent here.

First: C=C(C)C(=O)Nc1ccc(-c2c(-c3ccc(C(=O)NCC4CNC4)cc3)c3c(N)ncnc3n2C)cc1 [Example 334]
Second: C=C(C)C(=O)Nc1ccc(-c2c(-c3ccc(C(=O)NCC4COC4)cc3)c3c(N)ncnc3n2C)cc1 [Example 366]
The IC50 of the first is higher: 0.25 to 1 µM for the first, 0.1 to 0.25 µM for the second. The second is the more potent here.

C=C(C)C(=O)Nc1ccc(-c2c(-c3ccc(Oc4cccc(C#N)n4)cc3)c3c(N)ncnc3n2C)cc1 [Example 345] and C=C(C)C(=O)Nc1ccc(-c2c(-c3ccc(C(=O)N4CCC[C@H]4C#N)cc3)c3c(N)ncnc3n2C)cc1 [Example 359] cannot be ordered by IC50: < 0.1 µM for the first, < 0.1 µM for the second.

C=C(C)C(=O)Nc1ccc(-c2c(-c3ccc(C(=O)NCC4(C)CC4)cc3)c3c(N)ncnc3n2C)cc1 [Example 349] and C=C(C)C(=O)Nc1ccc(-c2c(-c3ccc(C(=O)NCC4(C#N)CC4)cc3)c3c(N)ncnc3n2C)cc1 [Example 360] cannot be ordered by IC50: < 0.1 µM for the first, < 0.1 µM for the second.

First: C=C(C)C(=O)Nc1ccc(-c2c(-c3ccc(C(=O)NC4CCN(C)C4=O)cc3)c3c(N)ncnc3n2C)cc1 (centres unmarked) [Example 389]
Second: C=C(C)C(=O)Nc1ccc(-c2c(-c3ccc(C(=O)N(C)C4CCN(C)C4=O)cc3)c3c(N)ncnc3n2C)cc1 (centres unmarked) [Example 390]
The IC50 of the first is lower: 0.1 to 0.25 µM for the first, 1 to 100 µM for the second. The first is the more potent here.

First: C=C(C)C(=O)Nc1ccc(-c2c(-c3ccc(C(=O)NCC4COCCN4C)cc3)c3c(N)ncnc3n2C)cc1 (centres unmarked) [Example 392]
Second: C=C(C)C(=O)Nc1ccc(-c2c(-c3ccc(C(=O)NC4CCOC4)c(F)c3)c3c(N)ncnc3n2C)cc1 (centres unmarked) [Example 396]
The IC50 of the first is higher: 1 to 100 µM for the first, 0.1 to 0.25 µM for the second.

C=C(C)C(=O)Nc1ccc(-c2c(-c3ccc(C(=O)NC4CCOC4)c(OC)c3)c3c(N)ncnc3n2C2COC2)cc1 (centres unmarked) [Example 400] and C=C(C)C(=O)Nc1ccc(-c2c(C3=CCC(C(=O)NCC4CCC4)CC3)c3c(N)ncnc3n2C)cc1 (centres unmarked) [Example 402] fall in the same range of IC50: 0.1 to 0.25 µM for the first, 0.1 to 0.25 µM for the second.
